From US8044087B2, “Hepatitis C virus inhibitors” (priority 2008, dated 2011)

Legend:
[1] = molecular target: T1, HCV NS3/4A protease complex (Hepatitis C virus genotype 1a, UniProt P27958, C1454S/C1711G); assay: FRET peptide assay to monitor HCV NS3/4A proteolytic activity; format: biochemical; conditions: recombinant NS3/4A protease complex, strain not stated
T1 construct: DNA encoding the recombinant HCV NS3/4A protease complex (amino acids 1027 to 1711) for these strains; inferred from the pET21b vector and Ni-NTA purification; made in house; host or cells: Escherichia coli BL21 (DE3)
Source text: HCV NS3 protease complexes, derived from the BMS strain, H77 strain or J4L6S strain, were generated, as described below. These purified recombinant proteins were generated for use in a homogeneous assay (see below) to provide an indication of how effective compounds of the present disclosure would be in inhibiting HCV NS3 proteolytic activity.
Serum from an HCV-infected patient was obtained from Dr. T. Wright, San Francisco Hospital. An engineered full-length cDNA (compliment deoxyribonucleic acid) template of the HCV genome (BMS strain) was constructed from DNA fragments obtained by reverse transcription-PCR (RT-PCR) of serum RNA (ribonucleic acid) and using primers selected on the basis of homology between other genotype 1a strains. From the determination of the entire genome sequence, a genotype 1a was assigned to the HCV isolate according to the classification of Simmonds et al. (See P Simmonds, K A Rose, S Graham, S W Chan, F McOmish, B C Dow, E A Follett, P L Yap and H Marsden, J. Clin. Microbiol., 31(6), 1493-1503 (1993)). […] The infectious clones, H77 (1a genotype) and J4L6S (1b genotype) were obtained from R. Purcell (NIH) and the sequences are published in Genbank (AAB67036, see Yanagi, M., Purcell, R. H., Emerson, S. U. and Bukh, J. Proc. Natl. Acad. Sci. U.S.A. 94(16), 8738-8743 (1997); AF054247, see Yanagi, M., St Claire, M., Shapiro, M., Emerson, S. U., Purcell, R. H. and Bukh, J., Virology 244 (1), 161-172. (1998)).
The H77 and J4L6S strains were used for production of recombinant NS3/4A protease complexes. DNA encoding the recombinant HCV NS3/4A protease complex (amino acids 1027 to 1711) for these strains was manipulated as described by P. Gallinari et al. (see Gallinari P, Paolini C, Brennan D, Nardi C, Steinkuhler C, De Francesco R. Biochemistry. 38(17):5620-32, (1999)). Briefly, a three-lysine solubilizing tail was added at the 3′-end of the NS4A coding region. The cysteine in the P1 position of the NS4A-NS4B cleavage site (amino acid 1711) was changed to a glycine to avoid the proteolytic cleavage of the lysine tag. Furthermore, a cysteine to serine mutation was introduced by PCR at amino acid position 1454 to prevent the autolytic cleavage in the NS3 helicase domain. The variant DNA fragment was cloned in the pET21b bacterial expression vector (Novagen) and the NS3/4A complex was expressed in Escherichia coli strain BL21 (DE3) (Invitrogen) following the protocol described by P. Gallinari et al. (see Gallinari P, Brennan D, Nardi C, Brunetti M, Tomei L, Steinkuhler C, De Francesco R., J Viral. 72(8):6758-69 (1998)) with modifications. Briefly, the NS3/4A protease complex expression was induced with 0.5 millimolar (mM) Isopropyl β-D-1-thiogalactopyranoside (IPTG) for 22 hours (h) at 20° C. […]

[2] = system: HCV replicon in HUH-7 cells; assay: HCV replicon FRET assay (confirmed in replicon luciferase reporter assay); format: cell-based; conditions: Hepatitis C virus, 96 h, HUH-7 cells expressing HCV 1b replicon, 4 days
Source text: An HCV replicon whole cell system was established as described by Lohmann V, Korner F, Koch J, Herian U, Theilmann L, Bartenschlager R., Science 285(5424):110-3 (1999). This system enabled us to evaluate the effects of our HCV Protease compounds on HCV RNA replication. Briefly, using the HCV strain 1b sequence described in the Lohmann paper (Assession number: AJ238799), an HCV cDNA was synthesized by Operon Technologies, Inc. (Alameda, Calif.), and the full-length replicon was then assembled in plasmid pGem9zf(+) (Promega, Madison, Wis.) using standard molecular biology techniques. The replicon consists of (i) the HCV 5′ UTR fused to the first 12 amino acids of the capsid protein, (ii) the neomycin phosphotransferase gene (neo), (iii) the IRES from encephalomyocarditis virus (EMCV), and (iv) HCV NS3 to NS5B genes and the HCV 3′ UTR. Plasmid DNAs were linearized with ScaI and RNA transcripts were synthesized in vitro using the T7 MegaScript transcription kit (Ambion, Austin, Tex.) according to manufacturer's directions. In vitro transcripts of the cDNA were transfected into the human hepatoma cell line, HUH-7. […] Resulting cell lines were characterized for positive and negative strand RNA production and protein production over time.
The HCV replicon FRET assay was developed to monitor the inhibitory effects of compounds described in the disclosure on HCV viral replication. HUH-7 cells, constitutively expressing the HCV replicon, were grown in Dulbecco's Modified Eagle Media (DMEM) (Gibco-BRL) containing 10% Fetal calf serum (FCS) (Sigma) and 1 mg/ml G418 (Gibco-BRL). Cells were seeded the night before (1.5×10^4 cells/well) in 96-well tissue-culture sterile plates. Compound and no compound controls were prepared in DMEM containing 4% FCS, 1:100 Penicillin/Streptomysin (Gibco-BRL), 1:100 L-glutamine and 5% DMSO in the dilution plate (0.5% DMSO final concentration in the assay). Compound/DMSO mixes were added to the cells and incubated for 4 days at 37° C. After 4 days, cells were first assessed for cytotoxicity using alamar Blue (Trek Diagnotstic Systems) for a CC50 reading. The toxicity of compound (CC50) was determined by adding 1/10 volume of alamar Blue to the media incubating the cells. After 4 h, the fluorescence signal from each well was read, with an excitation wavelength at 530 nm and an emission wavelength of 580 nm, using the Cytofluor Series 4000 (Perspective Biosystems). Plates were then rinsed thoroughly with Phosphate-Buffered Saline (PBS) (3 times 150 μl).
As a secondary assay, EC50 determinations from the replicon FRET assay were confirmed in a replicon luciferase reporter assay. […] Following 4 days in a 37° C./5% CO2 incubator, cells were analyzed for Renilla Luciferase activity using the Promega Dual-Glo Luciferase Assay System. […]

[3] = system: HCV; conditions: combination therapy; cited from earlier work

T1 sequence (P27958 1027-1711 C1454S/C1711G, one chain of several): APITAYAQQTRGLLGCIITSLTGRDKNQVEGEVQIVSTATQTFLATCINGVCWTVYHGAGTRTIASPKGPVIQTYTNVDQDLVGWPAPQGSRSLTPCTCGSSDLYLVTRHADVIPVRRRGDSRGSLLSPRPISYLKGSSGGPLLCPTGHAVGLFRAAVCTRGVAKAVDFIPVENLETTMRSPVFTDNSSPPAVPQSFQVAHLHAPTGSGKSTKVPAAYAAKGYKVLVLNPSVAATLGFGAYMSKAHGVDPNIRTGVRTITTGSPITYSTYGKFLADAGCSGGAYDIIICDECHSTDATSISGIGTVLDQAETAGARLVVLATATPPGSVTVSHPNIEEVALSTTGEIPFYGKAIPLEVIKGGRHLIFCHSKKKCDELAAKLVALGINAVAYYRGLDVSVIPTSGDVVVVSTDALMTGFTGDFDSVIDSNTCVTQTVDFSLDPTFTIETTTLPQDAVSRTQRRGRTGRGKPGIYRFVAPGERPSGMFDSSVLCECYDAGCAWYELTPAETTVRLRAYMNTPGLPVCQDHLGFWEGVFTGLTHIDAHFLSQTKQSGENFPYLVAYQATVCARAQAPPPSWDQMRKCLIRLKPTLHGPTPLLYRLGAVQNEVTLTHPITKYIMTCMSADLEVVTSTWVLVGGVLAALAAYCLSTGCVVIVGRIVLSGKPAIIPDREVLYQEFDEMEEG

## C=C[C@@H]1C[C@]1(NC(=O)[C@@H]1C[C@@]2(c3ccc(-c4ccccc4)cc3)CN1C(=O)[C@@H](NC(=O)OC(C)(C)C)CCCCC/C=C/CS2)C(=O)NS(=O)(=O)C1CC1 [Example 1, tert-butyl (3S,13R,15S,E)-13-(biphenyl-4-yl)-15-((1R,2S)-1-(cyclopropylsulfonylcarbamoyl)-2-vinylcyclopropylcarbamoyl)-2-oxo-12-thia-1-azabicyclo[11.2.1]hexadec-9-en-3-ylcarbamate]
[1]
  IC50: 5 nM
[2]
  EC50: 75 nM

## C=C[C@@H]1C[C@]1(NC(=O)[C@@H]1C[C@@]2(c3ccc(-c4ccccc4)cc3)CN1C(=O)[C@@H](NC(=O)OC(C)(C)C)CCCCCCCCCS2)C(=O)NS(=O)(=O)C1CC1 [Example 3, tert-butyl (3S,14R,16S)-14-(biphenyl-4-yl)-16-((1R,2S)-1-(cyclopropylsulfonylcarbamoyl)-2-vinylcyclopropylcarbamoyl)-2-oxo-13-thia-1-azabicyclo[12.2.1]heptadecan-3-ylcarbamate]
[1]; class symbols
  IC50: 5 to 30 nM
[2]; class symbols
  EC50: 501 to 1000 nM

## alpha-interferon and ribavirin
[3]
  sustained efficacy, share of patients: 40%

## C=C[C@@H]1C[C@]1(NC(=O)[C@@H]1C[C@@]2(c3ccc(-c4ccccc4)cc3)CN1C(=O)[C@@H](NC(=O)OC(C)(C)C)CCCCCC/C=C/CS2)C(=O)NS(=O)(=O)C1CC1 [Example 2, tert-butyl (3S,14R,16S,E)-14-(biphenyl-4-yl)-16-((1R,2S)-1-(cyclopropylsulfonylcarbamoyl)-2-vinylcyclopropylcarbamoyl)-2-oxo-13-thia-1-azabicyclo[12.2.1]heptadec-10-en-3-ylcarbamate]
[1]; class symbols
  IC50: 5 to 30 nM
[2]; class symbols
  EC50: 501 to 1000 nM

## C=C[C@@H]1C[C@]1(NC(=O)[C@@H]1C[C@@]2(c3ccc(-c4ccccc4)cc3)CN1C(=O)[C@@H](NC(=O)OC(C)(C)C)CCCC/C=C/CS2)C(=O)NS(=O)(=O)C1CC1 [Example 4, tert-butyl (3S,12R,14S,E)-12-(biphenyl-4-yl)-14-((1R,2S)-1-(cyclopropylsulfonylcarbamoyl)-2-vinylcyclopropylcarbamoyl)-2-oxo-11-thia-1-azabicyclo[10.2.1]pentadec-8-en-3-ylcarbamate]
[1]; class symbols
  IC50: 31 to 100 nM
[2]; class symbols
  EC50: 501 to 1000 nM
